The values that follow come from patent US11884647B2, “Compounds and methods for targeting pathogenic blood vessels” (THE REGENTS OF THE UNIVERSITY OF CALIFORNIA, priority 2019, dated 2024).

For one experiment, the system named is PLXDC1. The experiment in a line: PLXDC1 receptor activation assay (Gfi1b promotor luciferase reporter). Type of experiment: cell-based. The following applies: treatment 1 day; basal activity of PLXDC1-expressing cells = 1. From the text: (§1) FIG. 5A-B show activation of PLXDC1 and PLXDC2 by small molecules. […] All compound treatments were done for 1 day. Basal promotor activity of the PLXDC1-expressing cells is defined as 1.
On the technique in general: In a reporter assay the amount or activity of a reporter protein is the signal.

For experiment [1], the system named is tumor endothelial cells (CT26.CL25 colon cancer tumor). The experiment can be described thus: Colon CT26 ex vivo model of tumor angiogenesis. In kind it is cell-based. The following applies: Mus musculus, CT26, 48 h, read-out: Cell death. The method, boiled down:
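Explant pieces of CT26 tumor (about 0.075 mm^3) were embedded in Matrigel and grown in endothelial growth medium at 37 °C for about 7 days until endothelial outgrowth appeared, then treated. Cell death was read about 48 h after drug addition by fluorescein diacetate (live) and propidium iodide (dead) staining with red/green imaging.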

The subject of experiment [2] is tumor endothelial cells (LL/2 lung cancer tumor). The experiment in a line: Lung LL2 ex vivo model of tumor angiogenesis. In kind it is cell-based, mouse. The conditions noted are these: for cytotoxicity at 40 µM / cytotoxicity at 20 µM: Mus musculus, Endothelial cell, 48 h, read-out: Cell death. The method, boiled down: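 Read-out is live/dead fluorescence imaging (fluorescein diacetate green, propidium iodide red, 10 min at 37° C) at 2×, taken e.g. 48 h after drug addition. Fragments of mouse LL2 tumor are cultured in Matrigel with endothelial growth medium, usually 4 days, until new endothelial cells grow out, then treated.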

Another experiment relates to PLXDC2. The experiment can be described thus: PLXDC2 receptor activation (Gfi1b promotor luciferase reporter). Type of experiment: cell-based. The conditions noted are these: treatment 1 day.
Description: as §1

Experiment [3] has as its system choroidal endothelial cells. The experiment in a line: Ex vivo model of choroidal angiogenesis (choroidal neovascularization). Type of experiment: cell-based. The following applies: 10 μM; for effect on new endothelial cells in choroidal angiogenesis: treatment starts after 7 days of angiogenesis, lasts two days, live/dead staining. Here is the method: FIG. 2A-E. Comparison of compound 369 with the current anti-angiogenic drug in an ex vivo model of choroidal angiogenesis. A. A schematic diagram of the timeframe of the experiment. […] Treatment lasts for two days before cell death and survival are analyzed. B. Control experiment without any drug treatment at day 7. The white circle in the middle delineates the piece of choroid/RPE that was embedded to initiate neovascularization. C. […] Eylea was added at 10 μM. […] The compound was added at 10 μM. In B-D, green cells are live cells and red cells are dead cells. E. Quantitation of the experiments described in B-D. The amount of new endothelial cells in the untreated control is defined as 100%.

“Also recorded” adds a separate entry of the source.

In the case of `O=c1[nH]cc(F)c(=O)[nH]1` [Fluorouracil, reference compound], the “Gfi1b promotor activity in PLXDC1-expressing cells” value in the experiment with PLXDC1 is given as “does not activate this promoter”.

`CCCCOc1ccc(S(=O)(=O)c2cnc3ccc(C(=O)OCC)cc3c2N2CCC(N3CCC(c4ccccc4)CC3)CC2)cc1` [compound 215, ethyl 3-((4-butoxyphenyl)sulfonyl)-4-(4-phenyl-[1,4′-bipiperidin]-1′-yl)quinoline-6-carboxylate]: in experiment [1], the cytotoxicity at 40 µM was 20%. This compound came in with a Cell death in experiment [2] (Lung LL2 ex vivo, Conc. 40 μm, drug treatment two days) of 30%.

For `CCCCCCCOc1ccc(S(=O)(=O)c2cnc3ccc(SC)cc3c2N2CCCN(C)CC2)cc1` [compound 218, 3-((4-(heptyloxy)phenyl)sulfonyl)-4-(4-methyl-1,4-diazepan-1-yl)-6-(methylthio)quinoline], the cytotoxicity at 40 µM was 90% in experiment [1] and 100% in experiment [2].

Regarding `CCCCCCCOc1ccc(S(=O)(=O)c2cnc3ccc(SC)cc3c2N2CCC(N3CCCCC3)CC2)cc1` [compound 219, 4-([1,4′-bipiperidin]-1′-yl)-3-((4-(heptyloxy)phenyl)sulfonyl)-6-(methylthio)quinoline], the values for the cytotoxicity at 40 µM in experiment [1] and in experiment [2] were 90% and 60%, respectively.

In the case of `CCCCCCCOc1ccc(S(=O)(=O)c2cnc3ccc([S+](C)[O-])cc3c2N2CCCN(C)CC2)cc1` (stereo not drawn) [compound 220, 3-((4-(heptyloxy)phenyl)sulfonyl)-4-(4-methyl-1,4-diazepan-1-yl)-6-(methylsulfinyl)quinoline], the cytotoxicity at 40 µM in experiment [1] and in experiment [2] was 100% each time.

As to `CCCCCCCOc1ccc(S(=O)(=O)c2cnc3ccc([S+](C)[O-])cc3c2N2CCC(N3CCCCC3)CC2)cc1` (stereo not drawn) [compound 221, 4-([1,4′-bipiperidin]-1′-yl)-3-((4-(heptyloxy)phenyl)sulfonyl)-6-(methylsulfinyl)quinoline], the cytotoxicity at 40 µM in experiment [1] and in experiment [2] was 100% each time.

For `CCCCOc1ccc(S(=O)(=O)c2cnc3ccc([S+](C)[O-])cc3c2N2CCC(N3CCC(O)(c4ccccc4)CC3)CC2)cc1` (stereo not drawn) [compound 238, 1′-(3-((4-butoxyphenyl)sulfonyl)-6-(methylsulfinyl)quinolin-4-yl)-4-phenyl-[1,4′-bipiperidin]-4-ol], the cytotoxicity at 10 µM in experiment [1] is 10%. For the same compound, in experiment [2], the cytotoxicity at 40 µM was 100%.

As for `CCCCOc1ccc(S(=O)(=O)c2cnc3ccc([S+](C)[O-])cc3c2N2CCC(N3CCCN(C)CC3)CC2)cc1` (stereo not drawn) [compound 241, 3-((4-butoxyphenyl)sulfonyl)-4-(4-(4-methyl-1,4-diazepan-1-yl)piperidin-1-yl)-6-(methylsulfinyl)quinoline], the cytotoxicity at 10 µM in experiment [1] turned out to be 0%. In addition, the cytotoxicity at 40 µM in experiment [2] was determined as 40%.

Turning to `CCCCCCCOc1ccc(S(=O)(=O)c2cnc3ccc([S+](C)[O-])cc3c2N2CCC(N3CCN(C)CC3)CC2)cc1` (stereo not drawn) [compound 253, 3-((4-(heptyloxy)phenyl)sulfonyl)-4-(4-(4-methylpiperazin-1-yl)piperidin-1-yl)-6-(methylsulfinyl)quinoline], in experiment [1], the cytotoxicity at 10 µM worked out at 80%. Also, the cytotoxicity at 20 µM in experiment [2] stood at 100%.

As for `CCCCCCCOc1ccc(S(=O)(=O)c2cnc3ccc([S+](C)[O-])cc3c2N2CCC(N3CCCC(O)C3)CC2)cc1` (stereo not drawn) [compound 254, 1′-(3-((4-(heptyloxy)phenyl)sulfonyl)-6-(methylsulfinyl)quinolin-4-yl)-[1,4′-bipiperidin]-3-ol], the cytotoxicity at 10 µM in experiment [1] was 40%. In addition, the cytotoxicity at 20 µM in experiment [2] was 100%.

Turning to `CCCCCCCOc1ccc(S(=O)(=O)c2cnc3ccc([S+](C)[O-])cc3c2N2CCCN(CCN3CCCCC3)CC2)cc1` (stereo not drawn) [compound 255, 3-((4-(heptyloxy)phenyl)sulfonyl)-6-(methylsulfinyl)-4-(4-(2-(piperidin-1-yl)ethyl)-1,4-diazepan-1-yl)quinoline], the cytotoxicity at 10 µM in experiment [1] came out at 0%. Moreover, in experiment [2], the cytotoxicity at 20 µM amounted to 10%.

As for `CCCCCCCOc1ccc(S(=O)(=O)c2cnc3ccc([S+](C)[O-])cc3c2N2CCC(N3CCCN(C)CC3)CC2)cc1` (stereo not drawn) [compound 256, 3-((4-(heptyloxy)phenyl)sulfonyl)-4-(4-(4-methyl-1,4-diazepan-1-yl)piperidin-1-yl)-6-(methylsulfinyl)quinoline], in experiment [1], the cytotoxicity at 10 µM worked out at 90%. In addition, in experiment [2], the cytotoxicity at 20 µM is 100%.

Consider `CCCCCCCOc1ccc(S(=O)(=O)c2cnc3ccc([S+](C)[O-])cc3c2N2CCC(N3CCN(CCO)CC3)CC2)cc1` (stereo not drawn) [compound 257, 2-(4-(1-(3-((4-(heptyloxy)phenyl)sulfonyl)-6-(methylsulfinyl)quinolin-4-yl)piperidin-4-yl)piperazin-1-yl)ethan-1-ol], for which the cytotoxicity at 10 µM in experiment [1] was found to be 100%. In addition, the cytotoxicity at 20 µM in experiment [2] was determined as 100%.

Take `CCCCCCCOc1ccc(S(=O)(=O)c2cnc3ccc([S+](C)[O-])cc3c2N2CCC(N3CCC(N4CCCCC4)CC3)CC2)cc1` (stereo not drawn) [compound 258, 4-([1,4′:1′,4″-terpiperidin]-1″-yl)-3-((4-(heptyloxy)phenyl)sulfonyl)-6-(methylsulfinyl)quinoline]: in experiment [1], the cytotoxicity at 10 µM was 100%. For the same compound, in experiment [2], the cytotoxicity at 20 µM amounted to 100%.

For `CCCCCCCOc1ccc(S(=O)(=O)c2cnc3ccc([S+](C)[O-])cc3c2N2CCN(C)CC2)cc1` (stereo not drawn) [compound 259, 3-((4-(heptyloxy)phenyl)sulfonyl)-4-(4-methylpiperazin-1-yl)-6-(methylsulfinyl)quinoline], the cytotoxicity at 20 µM worked out at 100% in experiment [1] and 95% in experiment [2].

For `CCCCCCCCCCCCOc1ccc(S(=O)(=O)c2cnc3ccc([S+](C)[O-])cc3c2N2CCC(N3CCC(N4CCCCC4)CC3)CC2)cc1` (stereo not drawn) [compound 342, 4-([1,4′:1′,4″-terpiperidin]-1″-yl)-3-((4-(dodecyloxy)phenyl)sulfonyl)-6-(methylsulfinyl)quinoline], in the experiment with PLXDC2, the “Gfi1b promotor activity in PLXDC2-expressing cells” value was “activated the promotor activity in PLXDC2-expressing cells”. Also, in experiment [2], the cytotoxicity at 20 µM amounted to 60%. In addition, the “Gfi1b promotor activity in PLXDC1-expressing cells” value with PLXDC1 was “highly activated the promotor activity in PLXDC1-expressing cells”.

As for `CCCCCCCCCCCCCCOc1ccc(S(=O)(=O)c2cnc3ccc([S+](C)[O-])cc3c2N2CCC(N3CCC(N4CCN(CCO)CC4)CC3)CC2)cc1F` (stereo not drawn) [compound 369, 2-(4-(1′-(3-((3-fluoro-4-(tetradecyloxy)phenyl)sulfonyl)-6-(methylsulfinyl)quinolin-4-yl)-[1,4′-bipiperidin]-4-yl)piperazin-1-yl)ethanol], the “effect on new endothelial cells in choroidal angiogenesis” value in experiment [3] is reported as “can kill the new endothelial cells in choroidal angiogenesis”. Further, the “effect on healthy tissue (choroid and RPE)” value in experiment [3] (two days treatment) was “Choroid and RPE are still alive after the treatment; also recorded: without affecting the healthy tissue”. In addition, the cytotoxicity at 20 µM in experiment [2] was found to be 20%.

With “Eylea: "The most commonly used drug for choroidal neovascularization, Eylea, can inhibit choroidal endothelial cell growth (as expected of an antiangiogenesis drug)" [reference compound]”, the “effect on new endothelial cells in choroidal angiogenesis” value in experiment [3] was “can inhibit choroidal endothelial cell growth”.
